Experimental data published in patent publication US20240018140A1, “MODIFIED IMIDAZOPYRIDINES AS GLUCOSYLCERAMIDE SYNTHASE INHIBITORS” (Merck Sharp & Dohme LLC, priority 2020, published 2024).

Target: glucosylceramide synthase (GCS) (Homo sapiens (Human), UniProt Q16739)
Assay: UDP-Glo glucosylceramide synthase biochemical assay
Conditions: endogenous GCS in Golgi preparations from human A375 malignant melanoma skin cells; C6 ceramide and UDP-glucose substrates; 20 h incubation; UDP detected by luminescence
Source text: UDP-Glo™ Glucosylceramide Synthase Biochemical Assay
A UDP-Glo™ glucosylceramide synthase biochemical assay was utilized to evaluate the effect of test compounds on the activity of endogenous levels of GCS enzyme contained within Golgi preparations isolated from human A375 malignant melanoma skin cells. The UDP-Glo™ glucosylceramide synthase assay uses UDP-Glucose as a nucleotide-glycosyl donor and ceramide as substrate acceptor molecules. In the reaction, glucosylceramide synthase (GCS) transfers glucose from UDP-Glucose to ceramide. Glucosylceramide and UDP are released as products.
Using Promega's UDP-Glo™ Glycosyltransferase assay kit (Promega Corporation, Madison, WI, USA (Promega)), GCS activity was indirectly measured by detecting the amount of UDP produced. An aliquot of GCS enzyme (1.5 μg crude golgi preparation, total protein) and titrated test compound were aliquoted to each well and incubated for 30 minutes at room temperature. […] An equivalent volume of substrate mixture was then added to each well. Following a 20 h incubation at room temperature to allow for GCS turnover of substrate, an equal volume of UDP detection reagent (Promega) was added to each well and incubated for an additional 75 minutes at room temperature to simultaneously convert the accumulated UDP product into ATP and generate light in a luciferase reaction. The generated light was detected using a luminometer. […] luminescence values (RLUs) were normalized to mean “min” and “max” effects, as determined on each plate. “Min” was defined as the mean of the values of the wells treated with vehicle (DMSO) and which represent 0% inhibition; “max” was defined as the mean of the values of the wells treated with a reference inhibitor and which represent the 100% effect. Values for % Emax and EC50 were determined by best-fitting the normalized data to a curve in Activity Base along a four-parameter logistic nonlinear regression (4PL) model (based on the Levenberg-Marquardt algorithm and defined by the equation below): […]
where: n is 4PMin (bottom of the curve); m is 4PMax (top of the curve); i is IP (inflection point of curve); and p is slope. See Levenberg, K., “A Method for the Solution of Certain Problems in Least Squares”, Quart. Appl. Math. 2, (1944), pp 164-168 and Marquardt, D., “An Algorithm for Least Squares Estimation on Nonlinear Parameters”, SIAM J. Appl. Math. 11, (1963) pp 431-441.

glucosylceramide synthase (GCS), sequence (Q16739 whole entry): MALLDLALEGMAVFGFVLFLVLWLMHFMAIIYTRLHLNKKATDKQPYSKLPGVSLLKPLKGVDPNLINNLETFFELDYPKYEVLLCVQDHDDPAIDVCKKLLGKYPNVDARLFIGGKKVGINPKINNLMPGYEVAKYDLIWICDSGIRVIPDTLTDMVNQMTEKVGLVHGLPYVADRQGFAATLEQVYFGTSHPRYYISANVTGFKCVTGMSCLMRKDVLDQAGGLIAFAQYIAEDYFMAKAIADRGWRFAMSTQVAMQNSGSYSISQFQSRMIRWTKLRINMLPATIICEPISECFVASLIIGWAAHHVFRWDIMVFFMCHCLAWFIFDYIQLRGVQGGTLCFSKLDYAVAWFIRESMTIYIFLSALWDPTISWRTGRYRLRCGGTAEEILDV

Point of comparison: `O=C(NC(c1cccnc1)C(F)(F)F)c1cn2cccc(-c3ccccc3OCC(F)(F)F)c2n1` (racemic) [Compound 38, (R and S)-N-(2,2,2-trifluoro-1-(pyridin-3-yl)ethyl)-8-(2-(2,2,2-trifluoroethoxy)phenyl)imidazo[1,2-a]pyridine-2-carboxamide], EC50 5.5 nM. Against it:
- O=C(N[C@H]1CC[C@H](O)C[C@H]1F)c1cn2cc(Cl)cc(-c3ccccc3OCC(F)(F)F)c2n1 (mixture of isomers) [Compound 22, 6-chloro-N-((1S,2R,4S and 1R, 2S,4R)-2-fluoro-4-hydroxycyclohexyl)-8-(2-(2,2,2-trifluoroethoxy)phenyl)imidazo[1,2-a]pyridine-2-carboxamide] — 7.6-fold lower, 0.72 nM
- CC1(NC(=O)c2cn3cc(Cl)cc(-c4ccccc4OCC(F)(F)F)c3n2)CCOC1 (racemic) [Compound 14, (R and S)-6-chloro-N-(3-methyltetrahydrofuran-3-yl)-8-(2-(2,2,2-trifluoroethoxy)phenyl)imidazo[1,2-a]pyridine-2-carboxamide] — 5.7-fold lower, 0.97 nM
- O=C(NC1CNCCC1(F)F)c1cn2cccc(-c3ccccc3OCC(F)(F)F)c2n1 (racemic) [Compound 17, (R and S)-N-(4,4-difluoropiperidin-3-yl)-8-(2-(2,2,2-trifluoroethoxy)phenyl)imidazo[1,2-a]pyridine-2-carboxamide] — 4.6-fold lower, 1.2 nM
- CC1(NC(=O)c2cn3cc(Cl)cc(-c4ccccc4OCC(F)(F)F)c3n2)CCCOC1 (racemic) [Compound 35, (R and S)-6-chloro-N-(3-methyltetrahydro-2H-pyran-3-yl)-8-(2-(2,2,2-trifluoroethoxy)phenyl)imidazo[1,2-a]pyridine-2-carboxamide] — 1.7-fold lower, 3.3 nM
- O=C(c1cn2cccc(-c3ccccc3OCC(F)(F)F)c2n1)N1CCOC2(CCOC2)C1 (racemic) [Compound 50, (R and S)-(2,6-dioxa-9-azaspiro[4.5]decan-9-yl)(8-(2-(2,2,2-trifluoroethoxy)phenyl)imidazo[1,2-a]pyridin-2-yl)methanone] — 3.8-fold higher, 21 nM
- O=C(N[C@@H]1CNCC[C@H]1F)c1cn2cccc(-c3ccccc3OCC(F)(F)F)c2n1 (relative stereo) [Compound 16, N-(trans-4-fluoropiperidin-3-yl)-8-(2-(2,2,2-trifluoroethoxy)phenyl)imidazo[1,2-a]pyridine-2-carboxamide] — 6.6-fold lower, 0.83 nM
- O=C(N[C@H]1CC[C@H](O)C1)c1cn2cccc(-c3ccccc3OCC(F)(F)F)c2n1 (relative stereo) [Compound 19, N-(trans-3-hydroxycyclopentyl)-8-(2-(2,2,2-trifluoroethoxy)phenyl)imidazo[1,2-a]pyridine-2-carboxamide] — 4.2-fold higher, 23 nM
- O=C(N[C@@H]1CCC[C@H](CO)C1)c1cn2cccc(-c3ccccc3OCC(F)(F)F)c2n1 (relative stereo) [Compound 31, N-(cis-3-(hydroxymethyl)cyclohexyl)-8-(2-(2,2,2-trifluoroethoxy)phenyl)imidazo[1,2-a]pyridine-2-carboxamide] — 24-fold lower, 0.23 nM
- O=C(NC1CCCOC1)c1cn2cccc(-c3ccccc3OCC(F)(F)F)c2n1 (single isomer, unassigned) [Compound 2, (R or S)-N-(tetrahydro-2H-pyran-3-yl)-8-(2-(2,2,2-trifluoroethoxy)phenyl)imidazo[1,2-a]pyridine-2-carboxamide] — within 1.5-fold, 6.1 nM
- CC(CO)(NC(=O)c1cn2cccc(-c3ccccc3OCC(F)(F)F)c2n1)C(F)(F)F (single isomer, unassigned) [Compound 9, (R or S)-N-(1,1,1-trifluoro-3-hydroxy-2-methylpropan-2-yl)-8-(2-(2,2,2-trifluoroethoxy)phenyl)imidazo[1,2-a]pyridine-2-carboxamide] — 2.4-fold lower, 2.3 nM
- CC(CO)(NC(=O)c1cn2cccc(-c3ccccc3OCC(F)(F)F)c2n1)C(F)(F)F (single isomer, unassigned) [Compound 10, (R or S)-N-(1,1,1-trifluoro-3-hydroxy-2-methylpropan-2-yl)-8-(2-(2,2,2-trifluoroethoxy)phenyl)imidazo[1,2-a]pyridine-2-carboxamide] — within 1.5-fold, 7.2 nM
